# Legend:
# Format in all cases: cell-based
# [1] = system: bacteria samples 4c, 4e, 5c, 5e, 6d; assay: Antibiotic susceptibility testing (colour of media), plate configuration #3, reference colours at 0 hours for bacteria samples 4c, 4e, 5c, 5e, 6d; settings: T~0 h
# Escherichia coli = assay: Antibiotic susceptibility testing (colour of media), spiked milk; settings: 37° C., plate configuration #3
# Protocol: (§1) Tables 36 to 38 which follow show further examples of antibiotic susceptibility testing performed in accordance with the present invention. Table 36, antibiotic susceptibility testing of Staphylococcus aureus in Mueller Hinton and Tryptic Soy Broth at pre-incubation and at between 15-24 h. Tables 37 and 38, antimicrobial susceptibility testing of Streptococcus uberis and E. coli with the addition of gram negative specific antibiotic aztreonam. Tables 38 to 49 show further examples of antibiotic susceptibility testing and the outcomes are aligned with the described inventions.
# Staphylococcus aureus = assay: as above; settings: for Colour of media: bacteria sample 5c; for Colour of media in each well: T~16 h, 37° C., plate configuration #3
# Protocol: as §1
# Streptococcus uberis = assay: as above; settings: T~16 h, 37° C., bacteria samples 6d, plate configuration #3
# Protocol: as §1
# [2] = Benzyl Penicillin or Cloxacillin 1 μg/ml
# [3] = Benzyl Penicillin or Cloxacillin 10 μg/ml
# [4] = Benzyl Penicillin or Cloxacillin 100 μg/ml
# [5] = Benzyl Penicillin or Cloxacillin 1,000 μg/ml
# [6] = Benzyl Penicillin or Cloxacillin 10,000 μg/ml
structure (smiles),measurement,setting,value
CC1(C)S[C@@H]2[C@H](NC(=O)Cc3ccccc3)C(=O)N2[C@H]1C(=O)O [benzyl penicillin],Colour of media in each well,[1]; [2],Red
same,Colour of media in each well,[1]; [3],Red
same,Colour of media in each well,[1]; [4],Red
same,Colour of media in each well,[1]; [5],Red
same,Colour of media in each well,[1]; [6],Red
same,Colour of media in each well,"Escherichia coli; T~16 h, bacteria samples 4c, Benzyl Penicillin or Cloxacillin 1 μg/ml",yellow
same,Colour of media in each well,"Escherichia coli; T~16 h, bacteria samples 4c, Benzyl Penicillin or Cloxacillin 10 μg/ml",yellow
same,Colour of media in each well,"Escherichia coli; T~16 h, bacteria samples 4c, Benzyl Penicillin or Cloxacillin 100 μg/ml",red
same,Colour of media in each well,"Escherichia coli; T~16 h, bacteria samples 4c, Benzyl Penicillin or Cloxacillin 1,000 μg/ml",red
same,Colour of media in each well,"Escherichia coli; T~16 h, bacteria samples 4c, Benzyl Penicillin or Cloxacillin 10,000 μg/ml",red
same,Colour of media in each well,"Escherichia coli; t~16 h, bacteria samples 4e, Benzyl Penicillin or Cloxacillin 1 μg/ml",yellow
same,Colour of media in each well,"Escherichia coli; t~16 h, bacteria samples 4e, Benzyl Penicillin or Cloxacillin 10 μg/ml",yellow
same,Colour of media in each well,"Escherichia coli; t~16 h, bacteria samples 4e, Benzyl Penicillin or Cloxacillin 100 μg/ml",Red
same,Colour of media in each well,"Escherichia coli; t~16 h, bacteria samples 4e, Benzyl Penicillin or Cloxacillin 1,000 μg/ml",Red
same,Colour of media in each well,"Escherichia coli; t~16 h, bacteria samples 4e, Benzyl Penicillin or Cloxacillin 10,000 μg/ml",Red
same,Colour of media,"Staphylococcus aureus; T = 0 hours (pre incubation), drug 0.01 μg/ml, Mueller Hinton (70 ul composition 26)",red
same,Colour of media,"Staphylococcus aureus; T = 0 hours (pre incubation), drug 0.01 μg/ml, Tryptic Soy (70 ul composition 2c)",red
same,Colour of media,"Staphylococcus aureus; T = 0 hours (pre incubation), drug 0.01 μg/ml, Tryptic Soy, wells H (20 ul composition 2c)",red
same,Colour of media,"Staphylococcus aureus; T = 0 hours (pre incubation), drug 0.05 μg/ml, Mueller Hinton (70 ul composition 26)",red
same,Colour of media,"Staphylococcus aureus; T = 0 hours (pre incubation), drug 0.05 μg/ml, Tryptic Soy (70 ul composition 2c)",red
same,Colour of media,"Staphylococcus aureus; T = 0 hours (pre incubation), drug 0.05 μg/ml, Tryptic Soy, wells H (20 ul composition 2c)",red
same,Colour of media,"Staphylococcus aureus; T = 0 hours (pre incubation), drug 0.1 μg/ml, Mueller Hinton (70 ul composition 26)",red
same,Colour of media,"Staphylococcus aureus; T = 0 hours (pre incubation), drug 0.1 μg/ml, Tryptic Soy (70 ul composition 2c)",red
same,Colour of media,"Staphylococcus aureus; T = 0 hours (pre incubation), drug 0.1 μg/ml, Tryptic Soy, wells H (20 ul composition 2c)",red
same,Colour of media,"Staphylococcus aureus; T = 0 hours (pre incubation), drug 0.5 μg/ml, Mueller Hinton (70 ul composition 26)",red
same,Colour of media,"Staphylococcus aureus; T = 0 hours (pre incubation), drug 0.5 μg/ml, Tryptic Soy (70 ul composition 2c)",red
same,Colour of media,"Staphylococcus aureus; T = 0 hours (pre incubation), drug 0.5 μg/ml, Tryptic Soy, wells H (20 ul composition 2c)",red
same,Colour of media,"Staphylococcus aureus; T = 0 hours (pre incubation), drug 1 μg/ml, Mueller Hinton (70 ul composition 26)",red
same,Colour of media,"Staphylococcus aureus; T = 0 hours (pre incubation), drug 1 μg/ml, Tryptic Soy (70 ul composition 2c)",red
same,Colour of media,"Staphylococcus aureus; T = 0 hours (pre incubation), drug 1 μg/ml, Tryptic Soy, wells H (20 ul composition 2c)",red
same,Colour of media,"Staphylococcus aureus; T = 0 hours (pre incubation), drug 5 μg/ml, Mueller Hinton (70 ul composition 26)",red
same,Colour of media,"Staphylococcus aureus; T = 0 hours (pre incubation), drug 5 μg/ml, Tryptic Soy (70 ul composition 2c)",red
same,Colour of media,"Staphylococcus aureus; T = 0 hours (pre incubation), drug 5 μg/ml, Tryptic Soy, wells H (20 ul composition 2c)",red
same,Colour of media,"Staphylococcus aureus; T = 0 hours (pre incubation), drug 10 μg/ml, Mueller Hinton (70 ul composition 26)",red
same,Colour of media,"Staphylococcus aureus; T = 0 hours (pre incubation), drug 10 μg/ml, Tryptic Soy (70 ul composition 2c)",red
same,Colour of media,"Staphylococcus aureus; T = 0 hours (pre incubation), drug 10 μg/ml, Tryptic Soy, wells H (20 ul composition 2c)",red
same,Colour of media,"Staphylococcus aureus; T = 0 hours (pre incubation), drug 50 μg/ml, Mueller Hinton (70 ul composition 26)",red
same,Colour of media,"Staphylococcus aureus; T = 0 hours (pre incubation), drug 50 μg/ml, Tryptic Soy (70 ul composition 2c)",red
same,Colour of media,"Staphylococcus aureus; T = 0 hours (pre incubation), drug 50 μg/ml, Tryptic Soy, wells H (20 ul composition 2c)",red
same,Colour of media,"Staphylococcus aureus; T = 0 hours (pre incubation), drug 100 μg/ml, Mueller Hinton (70 ul composition 26)",red
same,Colour of media,"Staphylococcus aureus; T = 0 hours (pre incubation), drug 100 μg/ml, Tryptic Soy (70 ul composition 2c)",red
same,Colour of media,"Staphylococcus aureus; T = 0 hours (pre incubation), drug 100 μg/ml, Tryptic Soy, wells H (20 ul composition 2c)",red
same,Colour of media,"Staphylococcus aureus; T = 0 hours (pre incubation), drug 500 μg/ml, Mueller Hinton (70 ul composition 26)",red
same,Colour of media,"Staphylococcus aureus; T = 0 hours (pre incubation), drug 500 μg/ml, Tryptic Soy (70 ul composition 2c)",red
same,Colour of media,"Staphylococcus aureus; T = 0 hours (pre incubation), drug 500 μg/ml, Tryptic Soy, wells H (20 ul composition 2c)",red
same,Colour of media,"Staphylococcus aureus; T = 15-24 h at 35° C., drug 0.01 μg/ml, Mueller Hinton (70 ul composition 26)",red
same,Colour of media,"Staphylococcus aureus; T = 15-24 h at 35° C., drug 0.01 μg/ml, Tryptic Soy (70 ul composition 2c)",yellow
same,Colour of media,"Staphylococcus aureus; T = 15-24 h at 35° C., drug 0.01 μg/ml, Tryptic Soy, wells H (20 ul composition 2c)",red
same,Colour of media,"Staphylococcus aureus; T = 15-24 h at 35° C., drug 0.05 μg/ml, Mueller Hinton (70 ul composition 26)",red
same,Colour of media,"Staphylococcus aureus; T = 15-24 h at 35° C., drug 0.05 μg/ml, Tryptic Soy (70 ul composition 2c)",red
same,Colour of media,"Staphylococcus aureus; T = 15-24 h at 35° C., drug 0.05 μg/ml, Tryptic Soy, wells H (20 ul composition 2c)",red
same,Colour of media,"Staphylococcus aureus; T = 15-24 h at 35° C., drug 0.1 μg/ml, Mueller Hinton (70 ul composition 26)",red
same,Colour of media,"Staphylococcus aureus; T = 15-24 h at 35° C., drug 0.1 μg/ml, Tryptic Soy (70 ul composition 2c)",red
same,Colour of media,"Staphylococcus aureus; T = 15-24 h at 35° C., drug 0.1 μg/ml, Tryptic Soy, wells H (20 ul composition 2c)",red
same,Colour of media,"Staphylococcus aureus; T = 15-24 h at 35° C., drug 0.5 μg/ml, Mueller Hinton (70 ul composition 26)",red
same,Colour of media,"Staphylococcus aureus; T = 15-24 h at 35° C., drug 0.5 μg/ml, Tryptic Soy (70 ul composition 2c)",red
same,Colour of media,"Staphylococcus aureus; T = 15-24 h at 35° C., drug 0.5 μg/ml, Tryptic Soy, wells H (20 ul composition 2c)",red
same,Colour of media,"Staphylococcus aureus; T = 15-24 h at 35° C., drug 1 μg/ml, Mueller Hinton (70 ul composition 26)",red
same,Colour of media,"Staphylococcus aureus; T = 15-24 h at 35° C., drug 1 μg/ml, Tryptic Soy (70 ul composition 2c)",red
same,Colour of media,"Staphylococcus aureus; T = 15-24 h at 35° C., drug 1 μg/ml, Tryptic Soy, wells H (20 ul composition 2c)",red
same,Colour of media,"Staphylococcus aureus; T = 15-24 h at 35° C., drug 5 μg/ml, Mueller Hinton (70 ul composition 26)",red
same,Colour of media,"Staphylococcus aureus; T = 15-24 h at 35° C., drug 5 μg/ml, Tryptic Soy (70 ul composition 2c)",red
same,Colour of media,"Staphylococcus aureus; T = 15-24 h at 35° C., drug 5 μg/ml, Tryptic Soy, wells H (20 ul composition 2c)",red
same,Colour of media,"Staphylococcus aureus; T = 15-24 h at 35° C., drug 10 μg/ml, Mueller Hinton (70 ul composition 26)",red
same,Colour of media,"Staphylococcus aureus; T = 15-24 h at 35° C., drug 10 μg/ml, Tryptic Soy (70 ul composition 2c)",red
same,Colour of media,"Staphylococcus aureus; T = 15-24 h at 35° C., drug 10 μg/ml, Tryptic Soy, wells H (20 ul composition 2c)",red
same,Colour of media,"Staphylococcus aureus; T = 15-24 h at 35° C., drug 50 μg/ml, Mueller Hinton (70 ul composition 26)",red
same,Colour of media,"Staphylococcus aureus; T = 15-24 h at 35° C., drug 50 μg/ml, Tryptic Soy (70 ul composition 2c)",red
same,Colour of media,"Staphylococcus aureus; T = 15-24 h at 35° C., drug 50 μg/ml, Tryptic Soy, wells H (20 ul composition 2c)",red
same,Colour of media,"Staphylococcus aureus; T = 15-24 h at 35° C., drug 100 μg/ml, Mueller Hinton (70 ul composition 26)",red
same,Colour of media,"Staphylococcus aureus; T = 15-24 h at 35° C., drug 100 μg/ml, Tryptic Soy (70 ul composition 2c)",red
same,Colour of media,"Staphylococcus aureus; T = 15-24 h at 35° C., drug 100 μg/ml, Tryptic Soy, wells H (20 ul composition 2c)",red
same,Colour of media,"Staphylococcus aureus; T = 15-24 h at 35° C., drug 500 μg/ml, Mueller Hinton (70 ul composition 26)",red
same,Colour of media,"Staphylococcus aureus; T = 15-24 h at 35° C., drug 500 μg/ml, Tryptic Soy (70 ul composition 2c)",red
same,Colour of media,"Staphylococcus aureus; T = 15-24 h at 35° C., drug 500 μg/ml, Tryptic Soy, wells H (20 ul composition 2c)",red
same,Colour of media in each well,"Staphylococcus aureus; bacteria samples 5c, Benzyl Penicillin or Cloxacillin 1 μg/ml",red
same,Colour of media in each well,"Staphylococcus aureus; bacteria samples 5c, Benzyl Penicillin or Cloxacillin 10 μg/ml",red
same,Colour of media in each well,"Staphylococcus aureus; bacteria samples 5c, Benzyl Penicillin or Cloxacillin 100 μg/ml",red
same,Colour of media in each well,"Staphylococcus aureus; bacteria samples 5c, Benzyl Penicillin or Cloxacillin 1,000 μg/ml",red
same,Colour of media in each well,"Staphylococcus aureus; bacteria samples 5c, Benzyl Penicillin or Cloxacillin 10,000 μg/ml",red
same,Colour of media in each well,"Staphylococcus aureus; bacteria samples 5e, Benzyl Penicillin or Cloxacillin 1 μg/ml",red
same,Colour of media in each well,"Staphylococcus aureus; bacteria samples 5e, Benzyl Penicillin or Cloxacillin 10 μg/ml",red
same,Colour of media in each well,"Staphylococcus aureus; bacteria samples 5e, Benzyl Penicillin or Cloxacillin 100 μg/ml",red
same,Colour of media in each well,"Staphylococcus aureus; bacteria samples 5e, Benzyl Penicillin or Cloxacillin 1,000 μg/ml",red
same,Colour of media in each well,"Staphylococcus aureus; bacteria samples 5e, Benzyl Penicillin or Cloxacillin 10,000 μg/ml",red
same,Colour of media in each well,Streptococcus uberis; [2],red
same,Colour of media in each well,Streptococcus uberis; [3],red
same,Colour of media in each well,Streptococcus uberis; [4],red
same,Colour of media in each well,Streptococcus uberis; [5],red
same,Colour of media in each well,Streptococcus uberis; [6],red
